Measured values published in paper PMC11434868, “Synthesis and Antiproliferative Effect of 3,4,5-Trimethoxylated Chalcones on Colorectal and Prostatic Cancer Cells” (Pharmaceuticals, 2024).

How the values were obtained:
HT-29 [1] = experiment: Trypan blue dye exclusion method on HT-29; assay type: cell-based, human
Method: (§1) Human CRC (HCT116 and HT-29) and PCa (DU145 and PC3) cell lines were purchased from the American Type Culture Collection (ATCC—LGC Standards, Molsheim, France). All cells were grown in RPMI 1640 medium supplemented with 10% FBS, 1% L-glutamine, 100 U/mL penicillin, and 100 μg/mL streptomycin. Cultures were maintained in a humidified atmosphere containing 5% CO2 at 37 °C. Cells were seeded in 75 cm^2 culture flasks at 1.2 × 10^4 cells/cm^2 for HCT116, DU145, and PC3 cells, and 2.0 × 10^4 for HT-29 cells. Cells were grown for 24 h in culture medium prior to exposure or not to obtain the synthesized compounds. Stock solutions (10^−2 M in DMSO) of each compound were diluted in culture medium to obtain appropriate final concentrations.
(§2) • (a) MTT assay: The antiproliferative effect of all compounds was determined using MTT assay (a metabolic activity test). Briefly, cells were seeded in 96-well culture plates at 4 × 10^3 cells/well for HCT116, PC3, and DU145 cells and 6 × 10^3 cells/well for HT-29 cells (100 µL/well), and grown for 24 h in culture medium prior to exposure or not to obtain compounds 1–15 with concentrations ranging from 5 nM to 50 μM. After 24 and 48 h of treatment, MTT (5 mg/mL in PBS) was added and incubated for another 3 h. MTT was then removed from the wells before adding 100 μL/well of DMSO. The optical density was detected with a microplate reader (Multiskan FC, Thermoscientific, Bordeaux, France) at 550 nm and cell viability was expressed as a percentage of each treatment condition compared to control cells. IC50 values were calculated for all compounds from the dose–response curve. Data are expressed as the arithmetic means ± standard error of the mean (SEM) of separate experiments. All experiments were performed at least in triplicate. • (b) Trypan blue dye exclusion method: Cells were grown for 24 h then treated with compounds 10 and 13 at indicated concentrations. After 48 h of treatment, cells were trypsinized and resuspended in complete medium. Each sample was mixed with Trypan blue solution (0.14% in HBSS, Invitrogen-GIBCO, ThermoFisher, Illkirch, France). Colored (non-viable) and dye-excluding (viable) cells were counted with the LUNA-II automated cell Counter (Logos Biosystems; MC2, Aubière, France). The control was normalized to 100% including viable and dead cells. The results indicated on the histograms were expressed as the percentage of cells compared to the control. IC50 values were determined from the percentages of viable cells compared to the control.

[2] = tested on: caspase-3 and PARP in HT-29 cells; experiment: Western blot of apoptosis-related proteins in HT-29; assay type: cell-based, human; settings: HT-29, 48 h;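 also: compared with untreated control cells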
Method: (§3) For total protein extraction, collected samples of each condition were washed in PBS. Then, the total cell pool was centrifuged at 200 g for 5 min at 4 °C and homogenized in RIPA lysis buffer (50 mM HEPES, pH 7.5, 150 mM NaCl, 1% sodium deoxycholate, 1% NP-40, 0.1% SDS, […] of aprotinin) containing protease inhibitors according to the manufacturer’s instructions. After quantification of protein levels using the Bradford method, proteins ([…]) were separated on 12.5% SDS-PAGE gels and transferred to PVDF membranes (GE Healthcare Life Science—Fisher Scientific). Membranes were probed with respective antibodies against human caspase-3, cleaved caspase-3, and PARP according to the manufacturer’s instructions. After incubation with appropriate secondary antibodies, blots were developed using the “ImmobilonWestern” substrate, following the manufacturer’s protocol, and G:BOX system (Syngene, Cambridge, UK). Membranes were then reblotted with human anti-β-actin used as a loading control.

HCT116 [3] = experiment: Trypan blue dye exclusion method on HCT116; assay type: cell-based, human
Method: as §1, §2

DU145 [4] = experiment: Trypan blue dye exclusion method on DU145; assay type: cell-based, human
Method: as §1, §2

DU145 [5] = experiment: MTT assay, antiproliferative effect on DU145; assay type: cell-based; settings: Homo sapiens
Method: as §1, §2

PC3 [6] = experiment: MTT assay, antiproliferative effect on PC3; assay type: cell-based; settings: Homo sapiens
Method: as §1, §2

HCT116 [7] = experiment: MTT assay, antiproliferative effect on HCT116; assay type: cell-based; settings: Homo sapiens
Method: as §1, §2

[8] = tested on: human CRC (HCT116 and HT-29) and human PCa (DU145 and PC3) cell lines; experiment: MTT assay, summary statements over the cell lines; assay type: cell-based
Method: as §1, §2

PC3 [9] = experiment: Trypan blue dye exclusion method on PC3; assay type: cell-based, human
Method: as §1, §2

HT-29 [10] = experiment: MTT assay, antiproliferative effect on HT-29; assay type: cell-based, human; settings: Homo sapiens
Method: as §1, §2

[11] = tested on: caspase-3 and PARP in DU145 cells; experiment: Western blot of apoptosis-related proteins in DU145; assay type: cell-based, human; settings: DU145, 48 h;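 also: compared with untreated control cells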
Method: as §3

[12] = tested on: caspase-3 and PARP in PC3 cells; experiment: Western blot of apoptosis-related proteins in PC3; assay type: cell-based, human; settings: PC3, 48 h;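 also: compared with untreated control cells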
Method: as §3

## COc1cc(C(=O)/C=C/c2coc3ccc(C)cc3c2=O)cc(OC)c1OC [chalcone 13, (E)-6-methyl-3-(3-oxo-3-(3,4,5-trimethoxyphenyl)prop-1-en-1-yl)-4H-chromen-4-one]
HT-29 [1]; HT-29, 48 h, 2.5 µM
  Dead cells: 5.48%
HT-29 [1]; HT-29, 48 h, 7.5 µM
  Dead cells: 9.04%
HT-29 [1]; Homo sapiens, HT-29, 48 h, from percentages of viable cells, read-out: IC50 Trypan Blue Test HT-29
  IC50: 4.05 µM
HT-29 [1]; Homo sapiens, HT-29, 48 h, 2.5 µM, read-out: Viable cells
  viability at 2.5 µM: 72.2%
HT-29 [1]; Homo sapiens, HT-29, 48 h, 5 µM, read-out: Viable cells
  viability at 5 µM: 37.6%
HT-29 [1]; Homo sapiens, HT-29, 48 h, 7.5 µM, read-out: Viable cells
  viability at 7.5 µM: 18.5%
[2]
  PARP cleavage (89 kDa fragment): clearly observed
  cleaved caspase-3: clearly observed
  native PARP expression: strong decreased expression
  pro-caspase-3 expression: decreased
HCT116 [3]; HCT116, 48 h, 2.5 µM
  Dead cells: 5.46%
HCT116 [3]; HCT116, 48 h, 5 µM
  Dead cells: 11.11%
HCT116 [3]; HCT116, 48 h, 7.5 µM
  Dead cells: 10.46%
HCT116 [3]; Homo sapiens, HCT-116, 48 h, from percentages of viable cells, read-out: IC50 Trypan Blue Test HCT116
  IC50: 3.48 µM
HCT116 [3]; Homo sapiens, HCT-116, HCT116, 48 h, 2.5 µM, read-out: Viable cells
  viability at 2.5 µM: 74.1%
HCT116 [3]; Homo sapiens, HCT-116, HCT116, 48 h, 5 µM, read-out: Viable cells
  viability at 5 µM: 19.6%
HCT116 [3]; Homo sapiens, HCT-116, HCT116, 48 h, 7.5 µM, read-out: Viable cells
  viability at 7.5 µM: 10.1%
DU145 [4]; DU145, 48 h, 2.5 µM
  Dead cells: 3.24%
DU145 [4]; DU145, 48 h, 5 µM
  Dead cells: 8.67%
DU145 [4]; DU145, 48 h, 7.5 µM
  Dead cells: 6.49%
DU145 [4]; Homo sapiens, DU-145, 48 h, from percentages of viable cells, read-out: IC50 Trypan Blue Test DU145
  IC50: 3.98 µM
DU145 [4]; Homo sapiens, DU-145, DU145, 48 h, 2.5 µM, read-out: Viable cells
  viability at 2.5 µM: 84.6%
DU145 [4]; Homo sapiens, DU-145, DU145, 48 h, 5 µM, read-out: Viable cells
  viability at 5 µM: 29.3%
DU145 [4]; Homo sapiens, DU-145, DU145, 48 h, 7.5 µM, read-out: Viable cells
  viability at 7.5 µM: 12.8%
DU145 [5]; DU-145, 24 h, read-out: IC50 DU145 24 h
  IC50: 3.92 ± 0.24 µM
DU145 [5]; DU-145, 48 h, read-out: IC50 DU145 48 h
  IC50: 3.31 ± 0.09 µM
PC3 [6]; PC-3, 24 h, read-out: IC50 PC3 24 h
  IC50: 5.18 ± 0.39 µM
PC3 [6]; PC-3, 48 h, read-out: IC50 PC3 48 h
  IC50: 5.13 ± 0.25 µM
HCT116 [7]; HCT-116, 24 h, read-out: IC50 HCT116 24 h
  IC50: 2.86 ± 0.2 µM
HCT116 [7]; HCT-116, 48 h, read-out: IC50 HCT116 48 h
  IC50: 2.59 ± 0.12 µM
[8]; Homo sapiens, 48 h, read-out: IC50 over the four cell lines
  IC50: 2.6 to 5.1 µM
[8]; Homo sapiens, 48 h, from the concentration of 10 µM, whole cell lines
  viability at 10 µM: < 10%
[8]; comparison of IC50 values
  activity relative to chalcone 12: four times more active
PC3 [9]; Homo sapiens, PC-3, 48 h, from percentages of viable cells, read-out: IC50 Trypan Blue Test PC3
  IC50: 5.33 µM
PC3 [9]; Homo sapiens, PC-3, PC3, 48 h, 2.5 µM, read-out: Viable cells
  viability at 2.5 µM: 92.8%
PC3 [9]; Homo sapiens, PC-3, PC3, 48 h, 5 µM, read-out: Viable cells
  viability at 5 µM: 54.3%
PC3 [9]; Homo sapiens, PC-3, PC3, 48 h, 7.5 µM, read-out: Viable cells
  viability at 7.5 µM: 15.4%
PC3 [9]; PC3, 48 h, 2.5 µM
  Dead cells: 9.51%
PC3 [9]; PC3, 48 h, 5 µM
  Dead cells: 6.14%
PC3 [9]; PC3, 48 h, 7.5 µM
  Dead cells: 4.23%
HT-29 [10]; HT-29, 24 h, 24 h, read-out: IC50 HT-29 24 h
  IC50: 3.88 ± 0.08 µM
HT-29 [10]; HT-29, 48 h, 48 h, read-out: IC50 HT-29 48 h
  IC50: 3.1 ± 0.17 µM
[11]
  PARP cleavage (89 kDa fragment): clearly observed
  cleaved caspase-3: clearly observed
  native PARP expression: strong decreased expression
  pro-caspase-3 expression: decrease was less marked
[12]
  PARP cleavage (89 kDa fragment): clearly observed
  cleaved caspase-3: clearly observed
  native PARP expression: strong decreased expression
  pro-caspase-3 expression: decreased
